Results as given in publication PMC9011347, “Small-Molecule Inhibitors Targeting Lipolysis in Human Adipocytes” (Journal of the American Chemical Society, 2022).

System: primary human adipocytes
Assay: Lipolysis in primary human adipocytes
Format: cell-based
Description: Figure 3 NG-497 inhibits lipolysis in human SGBS and primary human adipocytes. SGBS adipocytes were preincubated with NG-497 for 1 h at the indicated concentrations. Subsequently, lipolysis was stimulated with isoproterenol (1 μM) and (a) FA and (b) glycerol release was determined after 1 h using commercial kits. (c) Dose-dependent inhibition of isoproterenol-stimulated FA release from SGBS adipocytes by the HSL inhibitor 76-068 (HSLi). […] (e) DAG accumulation in SGBS adipocytes was analyzed by thin-layer chromatography (TLC) following 1 h incubation with HSLi (25 μM), NG-497 (40 μM), and a combination of both inhibitors. […] Subsequently, basal and Forskolin (5 μM)-stimulated release of radioactivity was determined via liquid scintillation over a period of 2 h in the presence or absence of NG-497 (40 μM). FA release was calculated based on FA concentrations in conditioned media after 2 h as determined using a commercial kit. […] Subsequently, the medium was changed and FA release was monitored over a period of 3 h under the indicated conditions. […] Statistical significance was determined via ANOVA followed by Bonferroni post hoc test (^#p < 0.05; ^##p < 0.01; ^###p < 0.001). […]
Released free fatty acids were quantified via NEFA C kit (Fujifilm Wako Chemicals, Neuss, Germany) and release of p-nitrophenol was measured at 405 nm. […]

`CCOc1ccc(-c2cc(OC)cc(C(=O)OC(C)C)n2)cc1` [NG-497] was tested, and the activity at 40 µM (Homo sapiens, Adipocyte, primary adipocytes, 1 h preincubation with NG-497 40 μM, within the third hour after pretreatment, read-out: lipolytic activity regained after inhibitor removal) was ~40% and the “Forskolin-induced FA release” value (primary human adipocytes, NG-497 40 μM, Forskolin 5 μM, 2 h, [9,10-3H] oleic acid label) was “diminished Forskolin-induced FA release to basal level”.
